Laboratory results from patent publication US12195427B2, “MASP-2 inhibitors and methods of use” (priority 2018, dated 2025).

molecular target: MASP-2 CCP2-SP (Homo sapiens (Human), UniProt O00187); experiment: MASP-2 co-crystallization, X-ray crystallography and structure analysis (H-bonds, van der Waals contacts); parameters: van der Waals contact distance, MASP-2 HIS 483 atom CD2 / van der Waals contact distance, MASP-2 HIS 483 atom NE2 / van der Waals contact distance, SER 654 C to compound atom / van der Waals contact distance, SER 654 O to compound atom / van der Waals contact distance, TRP 655 C to compound atom / van der Waals contact distance, MASP-2 GLY 528 atom CA / van der Waals contact distance TRP 655 atom CZ3 / van der Waals contact distance TRP 655 atom N / van der Waals contact distance TRP 655 atom CE3 / van der Waals contact distance GLY 656 atom C / van der Waals contact distance GLY 656 atom CA / van der Waals contact distance GLY 656 atom O / van der Waals contact distance, MASP-2 TYR 607 atom CD1 / van der Waals contact distance, MASP-2 PRO 606 atom O / d(C3,CA1) / d(CA1,N1)2 / d(H4,O1) / d(H4,O2) / d(O1,O2) / d(CA1,O2) / d(CA6,O1) / d(CA6,O2) / d(CA1,C5) / d(O2,H3) / d(N2,C2) / d(CA5,N2) / d(N2,C4) / d(N2,C6) / d(N2,CA3) / d(N2,O3) / d(O4,H2): unit not given beside the values; details: Table A4-1; element C2;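 as to Ligand-pharmacophore element distance, pharmacophore element C2: distance from averaged pharmacophore element to bound ligand; missing value means element absent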;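 as to Ligand-pharmacophore element distance, pharmacophore element C3: distance from averaged pharmacophore element to bound ligand; missing value means element absent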;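 as to Ligand-pharmacophore element distance, pharmacophore element C4: distance from averaged pharmacophore element to bound ligand; missing value means element absent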;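 as to Ligand-pharmacophore element distance, pharmacophore element C5: distance from averaged pharmacophore element to bound ligand; missing value means element absent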
Sequence (O00187 445-686): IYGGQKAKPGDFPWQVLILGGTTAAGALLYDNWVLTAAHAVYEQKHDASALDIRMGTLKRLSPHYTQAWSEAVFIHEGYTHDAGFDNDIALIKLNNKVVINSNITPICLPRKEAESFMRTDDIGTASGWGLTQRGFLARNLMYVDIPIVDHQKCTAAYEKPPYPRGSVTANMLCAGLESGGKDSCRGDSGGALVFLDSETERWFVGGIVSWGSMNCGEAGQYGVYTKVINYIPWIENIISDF
Sequence (O00187 364-432 partner): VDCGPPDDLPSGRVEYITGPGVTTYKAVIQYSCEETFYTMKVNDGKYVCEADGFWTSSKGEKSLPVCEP
In short: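 First, CCP2-SP constructs with or without a 6His tag are produced in E. coli. Crystals are then soaked once or twice with inhibitor, cryoprotected in 20% glycerol or frozen directly, and diffracted at synchrotron beamlines. Phasing uses molecular replacement with parts of 1Q3X.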

Row | SMILES | Ligand-pharmacophore element distance, pharmacophore element C2
1 | Cc1nc(N)ccc1CNC(=O)C(C)NC(=O)C1CC(c2cccc3ccccc23)CCN1.Cl.Cl (stereo not drawn) [1297_1] | 0.34
2 | Cc1nc(N)ccc1CNC(=O)[C@H](C)NC(=O)[C@H]1C[C@@H](c2cccc3ccccc23)CCN1.Cl.Cl [1297_2] | 0.34

same assay, conditions: Table A4-1; element C3

Row | SMILES | Ligand-pharmacophore element distance, pharmacophore element C3
3 | Cc1nc(N)ccc1CNC(=O)C(C)NC(=O)C1CC(c2cccc3ccccc23)CCN1.Cl.Cl (stereo not drawn) [1297_1] | 0.3
4 | Cc1nc(N)ccc1CNC(=O)[C@H](C)NC(=O)[C@H]1C[C@@H](c2cccc3ccccc23)CCN1.Cl.Cl [1297_2] | 0.17

same assay, conditions: Table A4-1; element C4

Row | SMILES | Ligand-pharmacophore element distance, pharmacophore element C4
5 | Cc1nc(N)ccc1CNC(=O)C(C)NC(=O)C1CC(c2cccc3ccccc23)CCN1.Cl.Cl (stereo not drawn) [1297_1] | 0
6 | Cc1nc(N)ccc1CNC(=O)[C@H](C)NC(=O)[C@H]1C[C@@H](c2cccc3ccccc23)CCN1.Cl.Cl [1297_2] | 0

same assay, conditions: Table A4-1; element C5

Row | SMILES | Ligand-pharmacophore element distance, pharmacophore element C5
7 | Cc1nc(N)ccc1CNC(=O)C(C)NC(=O)C1CC(c2cccc3ccccc23)CCN1.Cl.Cl (stereo not drawn) [1297_1] | 0
8 | Cc1nc(N)ccc1CNC(=O)[C@H](C)NC(=O)[C@H]1C[C@@H](c2cccc3ccccc23)CCN1.Cl.Cl [1297_2] | 0

same assay, conditions: Table A4-1; element C6

Row | SMILES | Ligand-pharmacophore element distance, pharmacophore element C6
9 | Cc1nc(N)ccc1CNC(=O)C(C)NC(=O)C1CC(c2cccc3ccccc23)CCN1.Cl.Cl (stereo not drawn) [1297_1] | 0
10 | Cc1nc(N)ccc1CNC(=O)[C@H](C)NC(=O)[C@H]1C[C@@H](c2cccc3ccccc23)CCN1.Cl.Cl [1297_2] | 0

same assay, conditions: Table A4-1; element C7

Row | SMILES | Ligand-pharmacophore element distance, pharmacophore element C7
11 | Cc1nc(N)ccc1CNC(=O)C(C)NC(=O)C1CC(c2cccc3ccccc23)CCN1.Cl.Cl (stereo not drawn) [1297_1] | 0
12 | Cc1nc(N)ccc1CNC(=O)[C@H](C)NC(=O)[C@H]1C[C@@H](c2cccc3ccccc23)CCN1.Cl.Cl [1297_2] | 0

same assay, conditions: Table A4-1; element CA1

Row | SMILES | Ligand-pharmacophore element distance, pharmacophore element CA1
13 | Cc1nc(N)ccc1CNC(=O)C(C)NC(=O)C1CC(c2cccc3ccccc23)CCN1.Cl.Cl (stereo not drawn) [1297_1] | 0.39
14 | Cc1nc(N)ccc1CNC(=O)[C@H](C)NC(=O)[C@H]1C[C@@H](c2cccc3ccccc23)CCN1.Cl.Cl [1297_2] | 0.47

same assay, conditions: Table A4-1; element CA2

Row | SMILES | Ligand-pharmacophore element distance, pharmacophore element CA2
15 | Cc1nc(N)ccc1CNC(=O)C(C)NC(=O)C1CC(c2cccc3ccccc23)CCN1.Cl.Cl (stereo not drawn) [1297_1] | 0.19
16 | Cc1nc(N)ccc1CNC(=O)[C@H](C)NC(=O)[C@H]1C[C@@H](c2cccc3ccccc23)CCN1.Cl.Cl [1297_2] | 0.22

same assay, conditions: Table A4-1; element CA3

Row | SMILES | Ligand-pharmacophore element distance, pharmacophore element CA3
17 | Cc1nc(N)ccc1CNC(=O)C(C)NC(=O)C1CC(c2cccc3ccccc23)CCN1.Cl.Cl (stereo not drawn) [1297_1] | 0
18 | Cc1nc(N)ccc1CNC(=O)[C@H](C)NC(=O)[C@H]1C[C@@H](c2cccc3ccccc23)CCN1.Cl.Cl [1297_2] | 0

same assay, conditions: Table A4-1; element CA4

Row | SMILES | Ligand-pharmacophore element distance, pharmacophore element CA4
19 | Cc1nc(N)ccc1CNC(=O)C(C)NC(=O)C1CC(c2cccc3ccccc23)CCN1.Cl.Cl (stereo not drawn) [1297_1] | 1.24
20 | Cc1nc(N)ccc1CNC(=O)[C@H](C)NC(=O)[C@H]1C[C@@H](c2cccc3ccccc23)CCN1.Cl.Cl [1297_2] | 1.25

same assay, conditions: Table A4-1; element CA5

Row | SMILES | Ligand-pharmacophore element distance, pharmacophore element CA5
21 | Cc1nc(N)ccc1CNC(=O)C(C)NC(=O)C1CC(c2cccc3ccccc23)CCN1.Cl.Cl (stereo not drawn) [1297_1] | 0
22 | Cc1nc(N)ccc1CNC(=O)[C@H](C)NC(=O)[C@H]1C[C@@H](c2cccc3ccccc23)CCN1.Cl.Cl [1297_2] | 0

same assay, conditions: Table A4-1; element CA6

Row | SMILES | Ligand-pharmacophore element distance, pharmacophore element CA6
23 | Cc1nc(N)ccc1CNC(=O)C(C)NC(=O)C1CC(c2cccc3ccccc23)CCN1.Cl.Cl (stereo not drawn) [1297_1] | 0
24 | Cc1nc(N)ccc1CNC(=O)[C@H](C)NC(=O)[C@H]1C[C@@H](c2cccc3ccccc23)CCN1.Cl.Cl [1297_2] | 0

same assay, conditions: Table A5-1 pharmacophore: distance between elements, S2/S1 region

Row | SMILES | d(C3,CA1) | d(CA1,N1)2 | d(CA1,O1) | d(CA1,O2) | d(H4,O1) | d(H4,O2) | d(O1,O2)
25 | Cc1nc(N)ccc1CNC(=O)C(C)NC(=O)C1CC(c2cccc3ccccc23)CCN1.Cl.Cl (stereo not drawn) [1297_1] | 2.87 | 1.39 | 4.35 | 3.86 | 4.31 | 3.81 | 3.46
26 | Cc1nc(N)ccc1CNC(=O)[C@H](C)NC(=O)[C@H]1C[C@@H](c2cccc3ccccc23)CCN1.Cl.Cl [1297_2] | 2.88 | 1.37 | 4.48 | 3.69 | 4.41 | 3.62 | 3.57

same assay, conditions: Table A5-2 pharmacophore distance, S3/S4 region

Row | SMILES | d(N2,C2) | d(N2,CA2) | d(O2,H3) | d(O2,N2)
27 | Cc1nc(N)ccc1CNC(=O)C(C)NC(=O)C1CC(c2cccc3ccccc23)CCN1.Cl.Cl (stereo not drawn) [1297_1] | 1.44 | 5.68 | 4.23 | 2.71
28 | Cc1nc(N)ccc1CNC(=O)[C@H](C)NC(=O)[C@H]1C[C@@H](c2cccc3ccccc23)CCN1.Cl.Cl [1297_2] | 1.47 | 5.78 | 3.98 | 2.84

same assay, conditions: Table A6-1 pharmacophore angle

Row | SMILES | a(C3, CA1, O1) | a(CA1, O1, O2) | a(O1, O2, H4)
29 | Cc1nc(N)ccc1CNC(=O)C(C)NC(=O)C1CC(c2cccc3ccccc23)CCN1.Cl.Cl (stereo not drawn) [1297_1] | 149.59 | 107.14 | 130.08
30 | Cc1nc(N)ccc1CNC(=O)[C@H](C)NC(=O)[C@H]1C[C@@H](c2cccc3ccccc23)CCN1.Cl.Cl [1297_2] | 150.01 | 103.93 | 128.26

same assay, conditions: Table A6-1 pharmacophore angle; Methyl-amino-pyridine compounds

Row | SMILES | a(N1, CA1, O1) b)
31 | Cc1nc(N)ccc1CNC(=O)C(C)NC(=O)C1CC(c2cccc3ccccc23)CCN1.Cl.Cl (stereo not drawn) [1297_1] | 174.57
32 | Cc1nc(N)ccc1CNC(=O)[C@H](C)NC(=O)[C@H]1C[C@@H](c2cccc3ccccc23)CCN1.Cl.Cl [1297_2] | 174.54

same assay, conditions: Table A6-2 pharmacophore angle

Row | SMILES | a(O1, O2, H3) | a(O1, O2, N2) | a(O2, N2, C2) | a(O2, N2, CA2)
33 | Cc1nc(N)ccc1CNC(=O)C(C)NC(=O)C1CC(c2cccc3ccccc23)CCN1.Cl.Cl (stereo not drawn) [1297_1] | 144.22 | 143.88 | 130.88 | 156.06
34 | Cc1nc(N)ccc1CNC(=O)[C@H](C)NC(=O)[C@H]1C[C@@H](c2cccc3ccccc23)CCN1.Cl.Cl [1297_2] | 144.48 | 141.45 | 127.48 | 154.79

same assay, conditions: Table A7-1; between pharmacophore elements of the bound compound

Row | SMILES | Pharmacophore torsion angle a(C3, CA1, O1, H4) | Pharmacophore torsion angle a(H4, O1, O2, H3) | Pharmacophore torsion angle a(H4, O1, O2, N2) | Pharmacophore torsion angle a(N1, CA1, O1, H4) | Pharmacophore torsion angle a(O1, H4, O2, CA1) | Pharmacophore torsion angle a(O1, O2, N2, C2)
35 | Cc1nc(N)ccc1CNC(=O)C(C)NC(=O)C1CC(c2cccc3ccccc23)CCN1.Cl.Cl (stereo not drawn) [1297_1] | 30.15 | 50.42 | 137.09 | 26.85 | −85.98 | 117.40
36 | Cc1nc(N)ccc1CNC(=O)[C@H](C)NC(=O)[C@H]1C[C@@H](c2cccc3ccccc23)CCN1.Cl.Cl [1297_2] | 29.10 | 51.75 | 141.21 | 23.27 | −87.24 | 116.16

same assay, conditions: Table A7-2; between pharmacophore elements of the bound compound

Row | SMILES | Pharmacophore torsion angle a(O1, O2, N2, CA2) | Pharmacophore torsion angle a(O1, O2, N2, CA4)
37 | Cc1nc(N)ccc1CNC(=O)C(C)NC(=O)C1CC(c2cccc3ccccc23)CCN1.Cl.Cl (stereo not drawn) [1297_1] | 131.38 | 110.58
38 | Cc1nc(N)ccc1CNC(=O)[C@H](C)NC(=O)[C@H]1C[C@@H](c2cccc3ccccc23)CCN1.Cl.Cl [1297_2] | 126.84 | 106.20
